In patent US12310975B2, “Modulators of BCL6 proteolysis and associated methods of use” (Arvinas Operations, Inc., priority 2019, dated 2025):

target: BCL6 (Homo sapiens (Human), UniProt P41182); assay: Immunofluorescence high content imaging of BCL6 degradation in T47D cells; assay type: cell-based; conditions: not given
How it was run: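 T47D, 3 d compound exposure, 11-pt 3-fold series, top 0.1 or 1 μM final. Fix 4% PFA, Triton permeabilize, anti-BCL6 primary overnight 4 °C, Alexa-488 secondary. High-content imaging 10×, 4 fields/well, top-hat smoothing.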

IC50 [nM] | Structure (SMILES)
< 10 | CNC(=O)COc1cc2cc(Nc3nc(N4CCN(CC5CCN(c6ccc7c(c6)C(=O)N(C6CCC(=O)NC6=O)C7=O)CC5)CC4)c(C#N)cc3Cl)ccc2n(C)c1=O (stereo not shown) [compound 297, 2-{[6-({3-chloro-5-cyano-6-[4-({1-[2-(2,6-dioxopiperidin-3-yl)-1,3-dioxo-2,3-dihydro-1H-isoindol-5-yl]piperidin-4-yl}methyl)piperazin-1-yl]pyridin-2-yl}amino)-1-methyl-2-oxo-1,2-dihydroquinolin-3-yl]oxy}-N-methylacetamide]

same assay, conditions: T47D

Dmax [%] | Structure (SMILES)
< 50 | CNC(=O)COc1cc2cc(Nc3nc(N4CCN(CC5CCN(c6ccc7c(c6)C(=O)N(C6CCC(=O)NC6=O)C7=O)CC5)CC4)c(C#N)cc3Cl)ccc2n(C)c1=O (stereo not shown) [compound 297, 2-{[6-({3-chloro-5-cyano-6-[4-({1-[2-(2,6-dioxopiperidin-3-yl)-1,3-dioxo-2,3-dihydro-1H-isoindol-5-yl]piperidin-4-yl}methyl)piperazin-1-yl]pyridin-2-yl}amino)-1-methyl-2-oxo-1,2-dihydroquinolin-3-yl]oxy}-N-methylacetamide]

same assay, conditions: T47D cells

Dmax [%] | IC50 [nM] | Structure (SMILES)
50 to 70 | 10 to 50 | CCN(C1CCN(c2ccc3c(c2)C(=O)N(C2CCC(=O)NC2=O)C3=O)CC1)C1CCN(c2ncc(Cl)c(Nc3ccc4c(c3)cc(OCC(=O)NC)c(=O)n4C)n2)CC1 (stereo not shown) [compound 326, 2-{[6-({5-chloro-2-[4-({1-[2-(2,6-dioxopiperidin-3-yl)-1,3-dioxo-2,3-dihydro-1H-isoindol-5-yl]piperidin-4-yl}(ethyl)amino)piperidin-1-yl]pyrimidin-4-yl}amino)-1-methyl-2-oxo-1,2-dihydroquinolin-3-yl]oxy}-N-methylacetamide]
≥ 70 | < 10 | CNC(=O)COc1cc2cc(Nc3nc(N4CCC(OC5CC6(C5)CN(c5cccc7c5C(=O)N(C5CCC(=O)NC5=O)C7=O)C6)CC4)ncc3Cl)ccc2n(C(C)C)c1=O (stereo not shown) [compound 363, 2-{[6-({5-chloro-2-[4-({2-[2-(2,6-dioxopiperidin-3-yl)-1,3-dioxo-2,3-dihydro-1H-isoindol-4-yl]-2-azaspiro[3.3]heptan-6-yl}oxy)piperidin-1-yl]pyrimidin-4-yl}amino)-2-oxo-1-(propan-2-yl)-1,2-dihydroquinolin-3-yl]oxy}-N-methylacetamide]
50 to 70 | 50 to 100 | CNC(=O)COc1cc2cc(Nc3nc(N4C[C@@H](C)N(CC5CCN(c6cccc(C(=O)NC7CCC(=O)NC7=O)c6F)CC5)[C@@H](C)C4)ncc3Cl)ccc2n(C)c1=O (stereo partly drawn) [compound 355, 3-(4-{[(2R,6S)-4-[5-chloro-4-({1-methyl-3-[(methylcarbamoyl)methoxy]-2-oxo-1,2-dihydroquinolin-6-yl}amino)pyrimidin-2-yl]-2,6-dimethylpiperazin-1-yl]methyl}piperidin-1-yl)-N-(2,6-dioxopiperidin-3-yl)-2-fluorobenzamide]
50 to 70 | 10 to 50 | CCCn1c(=O)c(OCC(=O)NC)cc2cc(Nc3nc(N4CCN(CC5CCN(c6ccc7c(c6)C(=O)N(C6CCC(=O)NC6=O)C7=O)CC5)CC4)ncc3Cl)ccc21 (stereo not shown) [compound 314, 2-{[6-({5-chloro-2-[4-({1-[2-(2,6-dioxopiperidin-3-yl)-1,3-dioxo-2,3-dihydro-1H-isoindol-5-yl]piperidin-4-yl}methyl)piperazin-1-yl]pyrimidin-4-yl}amino)-2-oxo-1-propyl-1,2-dihydroquinolin-3-yl]oxy}-N-methylacetamide]
50 to 70 | 10 to 50 | CNC(=O)COc1cc2cc(Nc3nc(N4CCC(OC5CC6(C5)CN(c5cccc(C(=O)NC7CCC(=O)NC7=O)c5F)C6)CC4)ncc3Cl)ccc2n(C(C)C)c1=O (stereo not shown) [compound 430, 3-[6-({1-[5-chloro-4-({3-[(methylcarbamoyl)methoxy]-2-oxo-1-(propan-2-yl)-1,2-dihydroquinolin-6-yl}amino)pyrimidin-2-yl]piperidin-4-yl}oxy)-2-azaspiro[3.3]heptan-2-yl]-N-(2,6-dioxopiperidin-3-yl)-2-fluorobenzamide]
< 50 | 50 to 100 | CNC(=O)COc1cc2cc(Nc3nc(N4CCN(CC5CCN(c6cccc(C(=O)NC7CCC(=O)NC7=O)c6)CC5)CC4)ncc3Cl)ccc2n(C)c1=O (stereo not shown) [compound 319, 3-[4-({4-[5-chloro-4-({1-methyl-3-[(methylcarbamoyl)methoxy]-2-oxo-1,2-dihydroquinolin-6-yl}amino)pyrimidin-2-yl]piperazin-1-yl}methyl)piperidin-1-yl]-N-(2,6-dioxopiperidin-3-yl)benzamide]

same assay, conditions: class symbols A-D, read-out: EC50 (nM)*

DC50 [nM] | Structure (SMILES)
10 to 50 | CNC(=O)COc1cc2cc(Nc3nc(N4CCC(c5cn(CCOCCOCCOCC(=O)N[C@H](C(=O)N6C[C@H](O)C[C@H]6C(=O)N[C@@H](C)c6ccc(-c7scnc7C)cc6)C(C)(C)C)nn5)CC4)ncc3Cl)ccc2n(C)c1=O [compound 116, (2S,4R)-1-((S)-2-(tert-butyl)-14-(4-(1-(5-chloro-4-((1-methyl-3-(2-(methylamino)-2-oxoethoxy)-2-oxo-1,2-dihydroquinolin-6-yl)amino)pyrimidin-2-yl)piperidin-4-yl)-1H-1,2,3-triazol-1-yl)-4-oxo-6,9,12-trioxa-3-azatetradecanoyl)-4-hydroxy-N-((S)-1-(4-(4-methylthiazol-5-yl)phenyl)ethyl) pyrrolidine-2-carboxamide]
> 100 | CNC(=O)COc1cc2cc(Nc3nc(N4CCC(OCCOCCOCCOc5cc(-c6scnc6C)ccc5CNC(=O)[C@@H]5C[C@@H](O)CN5C(=O)[C@H](c5cc(C)no5)C(C)C)CC4)ncc3Cl)ccc2n(C)c1=O [compound 49, (2S,4R)-N-(2-(2-(2-(2-((1-(5-chloro-4-((1-methyl-3-(2-(methylamino)-2-oxoethoxy)-2-oxo-1,2-dihydroquinolin-6-yl)amino)pyrimidin-2-yl)piperidin-4-yl)oxy)ethoxy)ethoxy)ethoxy)-4-(4-methylthiazol-5-yl)benzyl)-4-hydroxy-1-((S)-3-methyl-2-(3-methylisoxazol-5-yl)butanoyl)pyrrolidine-2-carboxamide]
> 100 | CNC(=O)COc1cc2cc(Nc3nc(N4CCC(Cc5cn(CCOCCOCC(=O)N[C@H](C(=O)N6C[C@H](O)C[C@H]6C(=O)N[C@@H](C)c6ccc(-c7scnc7C)cc6)C(C)(C)C)nn5)CC4)ncc3Cl)ccc2n(C)c1=O [compound 133, (2S,4R)-1-((S)-2-(2-(2-(2-(4-((1-(5-chloro-4-((1-methyl-3-(2-(methylamino)-2-oxoethoxy)-2-oxo-1,2-dihydroquinolin-6-yl)amino)pyrimidin-2-yl)piperidin-4-yl)methyl)-1H-1,2,3-triazol-1-yl)ethoxy)ethoxy)acetamido)-3,3-dimethylbutanoyl)-4-hydroxy-N-((S)-1-(4-(4-methylthiazol-5-yl)phenyl)ethyl)pyrrolidine-2-carboxamide]
> 100 | CNC(=O)COc1cc2cc(Nc3nc(N4CCC(OCCOCCOCCOCCOc5ccccc5Oc5ccc6c(c5)CN(C5CCC(=O)NC5=O)C6=O)CC4)ncc3Cl)ccc2n(C)c1=O (stereo not shown) [compound 134, 2-((6-((5-chloro-2-(4-(2-(2-(2-(2-(2-((2-(2,6-dioxopiperidin-3-yl)-1-oxoisoindolin-5-yl)oxy)phenoxy)ethoxy)ethoxy)ethoxy)ethoxy)piperidin-1-yl)pyrimidin-4-yl)amino)-1-methyl-2-oxo-1,2-dihydroquinolin-3-yl)oxy)-N-methylacetamide]
< 10 | CNC(=O)COc1cc2cc(Nc3nc(N4CCC(N(C)[C@H]5CC[C@@H](CN6CCN(c7ccc8c(c7)CN(C7CCC(=O)NC7=O)C8=O)CC6)CC5)CC4)ncc3Cl)ccc2n(C)c1=O (stereo partly shown) [compound 102, 2-((6-((5-chloro-2-(4-(((1s,4s)-4-((4-(2-(2,6-dioxopiperidin-3-yl)-1-oxoisoindolin-5-yl)piperazin-1-yl)methyl)cyclohexyl) (methyl)amino)piperidin-1-yl)pyrimidin-4-yl)amino)-1-methyl-2-oxo-1,2-dihydroquinolin-3-yl)oxy)-N-methylacetamide]
